We go through 5 compounds from US20160318987A1 (MEDIMMUNE LIMITED, priority 2013, published 2016).

One data set concerns the target T1, hGLP-1R (Homo sapiens, UniProt P43220).
T1 construct: expressed in transfected cells
Put plainly: cAMP functional assay, cells expressing human GLP-1 receptor (primary assay). In kind it is cell-based.

For another data set, the target named is T2, hGIP-R (Homo sapiens, UniProt P48546).
T2 construct: expressed in transfected cells
T2 sequence (P48546 22-466): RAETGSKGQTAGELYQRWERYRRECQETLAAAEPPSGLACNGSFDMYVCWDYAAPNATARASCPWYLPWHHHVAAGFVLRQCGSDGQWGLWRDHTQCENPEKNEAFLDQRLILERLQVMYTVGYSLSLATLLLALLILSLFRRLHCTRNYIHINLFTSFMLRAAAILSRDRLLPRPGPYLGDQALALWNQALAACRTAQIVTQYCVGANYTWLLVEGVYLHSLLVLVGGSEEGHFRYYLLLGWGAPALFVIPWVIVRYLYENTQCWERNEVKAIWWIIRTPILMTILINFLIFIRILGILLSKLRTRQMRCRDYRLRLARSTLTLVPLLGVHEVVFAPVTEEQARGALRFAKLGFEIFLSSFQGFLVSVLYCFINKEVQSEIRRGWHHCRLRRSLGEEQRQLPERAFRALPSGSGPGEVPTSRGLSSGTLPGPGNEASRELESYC
The experiment in a line: cAMP functional assay, cells expressing human GIP receptor (primary assay). In kind it is cell-based. The settings on record: n = 2.

In another data set the target is T3, Neprilysin (rhNEP) (Homo sapiens, UniProt P08473).
T3 construct: purchased R&D Systems 1182-ZNC-010
T3 sequence (P08473 52-750 limits assumed): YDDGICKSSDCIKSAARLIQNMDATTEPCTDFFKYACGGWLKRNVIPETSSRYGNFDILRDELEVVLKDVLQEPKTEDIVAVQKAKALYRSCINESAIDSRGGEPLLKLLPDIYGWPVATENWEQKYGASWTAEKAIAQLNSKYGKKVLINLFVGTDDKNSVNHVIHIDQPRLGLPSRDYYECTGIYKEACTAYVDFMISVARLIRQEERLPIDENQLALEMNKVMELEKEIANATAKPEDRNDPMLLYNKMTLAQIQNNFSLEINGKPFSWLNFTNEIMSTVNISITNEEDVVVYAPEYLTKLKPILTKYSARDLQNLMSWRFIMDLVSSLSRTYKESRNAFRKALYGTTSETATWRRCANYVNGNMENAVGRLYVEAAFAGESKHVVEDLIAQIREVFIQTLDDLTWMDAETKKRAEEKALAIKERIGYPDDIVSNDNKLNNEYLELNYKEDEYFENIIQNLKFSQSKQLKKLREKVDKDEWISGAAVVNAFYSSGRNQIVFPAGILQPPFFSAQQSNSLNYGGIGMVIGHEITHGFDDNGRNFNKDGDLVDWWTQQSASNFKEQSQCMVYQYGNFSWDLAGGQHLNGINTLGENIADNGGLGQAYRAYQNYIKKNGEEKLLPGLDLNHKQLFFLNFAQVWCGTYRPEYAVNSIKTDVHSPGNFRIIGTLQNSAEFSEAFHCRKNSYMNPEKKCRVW
Put plainly: neprilysin stability study (LC/MS). In kind it is in vitro ADME. The procedure:
(§1) Peptides for evaluation were prepared to a concentration of 1.0 mg/mL solutions in either pure water, sterile saline for injection (0.9% w/v NaCl/water) or 1× PBS (Dulbecco). 100 μL (100 μg/mL peptide) of these solutions was added to 900 μL of each protease solution. Additional experiments were performed examining protein degradation during exposure to serum and gastric fluid. For serum studies, peptides were incubated with 50% female Sprague-Dawley strain rat serum (SD rat serum). For gastric fluid studies, peptides were incubated 1:1 (volume:volume), fresh rat gastric fluid.
(§2) The peptide and enzyme (or serum or gastric fluid) were co-incubated in a temperature regulated water bath at 37° C. for the duration of the experiment. During each experiment 100 μL aliquots (10 μg peptide) of the incubated peptide-enzyme mixture were withdrawn periodically, quenched by addition of an equal volume of 5% TFA (v/v) in 1:1 water/acetonitrile to arrest proteolytic activity, and analyzed by liquid chromatography-mass spectrometry (LC/MS): Agilent Polaris C8-A column (4.6×100 mm, 3 micron) using a linear binary gradient of 10-90% MeCN (0.1% TFA v/v) in water (0.1% TFA v/v) over 30 minutes at 1.5 mL min^−1 at ambient temperature. Analytes were detected by both UV absorption at 210 nm and ionization using a Waters 3100 mass detector (ESI^+ mode). New peptidic species (fragments) derived from enzymatic cleavage of peptides were analyzed post-process, and their molecular masses were used to identify the precise cleavage position (highlighting the scissile bond in each case).

For data set [1], the target named is T4, Chymotrypsin (rhCTRC) (Homo sapiens, UniProt Q99895).
T4 construct: purchased R&D Systems 6907-SE-010
T4 sequence (Q99895 30-268): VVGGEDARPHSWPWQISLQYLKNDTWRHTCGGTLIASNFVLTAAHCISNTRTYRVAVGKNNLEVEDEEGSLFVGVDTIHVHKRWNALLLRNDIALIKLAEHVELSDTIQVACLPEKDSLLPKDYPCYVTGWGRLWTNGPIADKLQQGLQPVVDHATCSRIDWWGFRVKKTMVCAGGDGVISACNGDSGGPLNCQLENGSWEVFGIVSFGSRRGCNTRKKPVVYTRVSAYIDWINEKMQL
Put plainly: chymotrypsin stability study (LC/MS). In kind it is in vitro ADME. The settings on record: chymotrypsin. As for the experimental part:
as §1, §2

Data set [2] deals with T5, trypsin from porcine pancreas (Sus scrofa, UniProt P00761).
T5 construct: purchased Sigma P7409; host or cells: porcine pancreas
T5 sequence (P00761 9-231): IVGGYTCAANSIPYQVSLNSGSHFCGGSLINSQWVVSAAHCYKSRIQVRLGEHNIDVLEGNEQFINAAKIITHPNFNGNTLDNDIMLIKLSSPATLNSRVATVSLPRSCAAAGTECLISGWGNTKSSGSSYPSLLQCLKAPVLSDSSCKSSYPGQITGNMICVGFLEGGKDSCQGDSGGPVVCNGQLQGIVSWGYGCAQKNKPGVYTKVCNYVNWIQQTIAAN
Put plainly: trypsin stability study (LC/MS). In kind it is in vitro ADME. The procedure: as §1, §2

Data set [3] is described as follows: serum stability study (LC/MS). In kind it is in vitro ADME. The settings on record: female, Sprague-Dawley; 50% SD rat serum, after 60 hours; read-out: peptide remaining intact. As for the experimental part:
as §1
as §2, with “New peptidic species (fragments) derived from enzymatic cleavage of peptides were analyzed post-process, and their molecular masses were used to identify the precise cleavage position (highlighting the scissile bond in each case).” left out

Data set [4] relates to Chymotrypsin (rhCTRC). Put plainly: 1.0 μg rhCTRC in 900 μL assay buffer: 50 mM Tris, 10 mM CaCl2, 150 mM NaCl, 1 mM HCl, pH 7.8. The settings on record: 37° C., up to over 60 hours.
Another data set has as its system Trypsin. Put plainly: 1 mg/mL lyophilized trypsin from porcine pancreas in 50 mM Tris, 10 mM CaCl2, 150 mM NaCl, 1 mM HCl, pH 7.8. The conditions noted are these: 37° C., up to over 18 hours.
Data set [5] deals with Trypsin, Sigma P7409 (Type II-S). The data set is described as above. The conditions noted are these: 37° C., up to over 18 hours.
The test system of data set [6] is Neprilysin (Neutral endopeptidase, rhNEP). The experiment in a line: 1.0 μg rhNEP in 900 μL assay buffer: 50 mM Tris, 50 mM NaCl, 50 mM NaHCO3, pH 8.3. The conditions noted are these: 37° C., up to 240 hours.

Entries after “also recorded” stand apart in the source; their conditions may differ. Where a SMILES comes first, the peptide text is derived from it. [ ]: non-standard residue; d: D form. αMeF = C[C@](N)(Cc1ccccc1)C(=O)O; Aib = CC(C)(N)C(=O)O

T1 sequence (P43220 24-463): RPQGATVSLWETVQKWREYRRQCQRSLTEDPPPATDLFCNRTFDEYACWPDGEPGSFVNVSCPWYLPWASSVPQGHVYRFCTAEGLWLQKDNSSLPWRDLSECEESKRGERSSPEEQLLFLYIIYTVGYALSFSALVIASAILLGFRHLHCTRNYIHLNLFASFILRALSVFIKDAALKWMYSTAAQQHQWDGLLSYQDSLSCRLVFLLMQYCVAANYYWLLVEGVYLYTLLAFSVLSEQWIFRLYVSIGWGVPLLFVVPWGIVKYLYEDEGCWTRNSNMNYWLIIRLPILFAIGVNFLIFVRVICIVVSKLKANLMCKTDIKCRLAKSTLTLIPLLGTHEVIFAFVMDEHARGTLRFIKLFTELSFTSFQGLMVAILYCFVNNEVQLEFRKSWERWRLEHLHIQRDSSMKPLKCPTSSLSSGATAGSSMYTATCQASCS

The EC50 is the concentration at which the effect is half-maximal. The term share remaining denotes the share of the starting amount still present when the sample was taken. For the compound `CC[C@H](C)[C@H](NC(=O)[C@](C)(Cc1ccccc1)NC(=O)[C@H](CCC(=O)O)NC(=O)[C@H](CCCCN)NC(=O)[C@H](C)NC(=O)[C@H](C)NC(=O)[C@H](CCC(N)=O)NC(=O)CNC(=O)[C@H](CCC(=O)O)NC(=O)[C@H](CC(C)C)NC(=O)[C@](C)(Cc1ccccc1)NC(=O)[C@H](CO)NC(=O)[C@H](CO)NC(=O)[C@@H](NC(=O)[C@H](CC(=O)O)NC(=O)[C@H](CO)NC(=O)[C@@H](NC(=O)[C@](C)(Cc1ccccc1)NC(=O)[C@H](CO)NC(=O)CNC(=O)[C@H](CCC(=O)O)NC(=O)C(C)(C)NC(=O)[C@@H](N)Cc1c[nH]cn1)[C@@H](C)O)C(C)C)C(=O)N[C@@H](C)C(=O)N[C@@](C)(Cc1ccccc1)C(=O)N[C@@H](CC(C)C)C(=O)N[C@H](C(=O)N[C@@H](CCCCN)C(=O)NCC(=O)N[C@@H](CCCNC(=N)N)C(N)=O)C(C)C` [SEQ ID NO: 38, H-(Aib)^2-EG-(S)^5-(α-MeF)^6-TSDV^10 SS-(α-MeF)^13-LE^15 GQAAK^20 E-(α-MeF)^22-IA-(α-MeF)^25 LVKGR^30] (H-H[Aib]EGS[αMeF]TSDVSS[αMeF]LEGQAAKE[αMeF]IA[αMeF]LVKGR-NH2), at hGLP-1R, the “potency compared to the GLP-1 comparator peptide, SEQ ID NO:4” value is “equipotent”. Moreover, the EC50 on hGLP-1R (n = 2) was 0.0338 nM; on hGIP-R it was 102 nM. In addition, at Neprilysin (rhNEP) (Table 2 description), the “Neprilysin resistance (Discussion / Description)” value is “fully Neprilysin resistant but”. Also, the “proteolytic degradation over time-course” value at Neprilysin (rhNEP) (neprilysin, 96 hour time-course) is given as “no proteolytic degradation”. Besides, the “stability after prolonged exposure” value on Neprilysin (rhNEP) (neprilysin, after 10 days (240 hours)) is “still stable”. For the same compound, the cleavage site observed result on Chymotrypsin (rhCTRC) [1] was “solely at the Leu26/Val27”. Besides, the “time by which degradation occurred” value on Chymotrypsin (rhCTRC) [1] (37° C.) is at most 48 h. In [2] (Table 2 description), the “Trypsin resistance/susceptibility (Discussion / Description)” value is recorded as “Trypsin susceptibility”. Also, in [2] (trypsin, 37° C.), the “time by which proteolytic degradation occurred (carboxyl side of Lys20, Lys28 and Arg30)” value is at most 90 min. Also, the fraction remaining at 60 h, 100 μg/mL in data set [3] was about 64%.

For the compound “H-(Aib)^2-EG-(S)^5-(α-MeF)^6-TSDV^10 SS-(α-MeF)^13-LE^15 GQAA-(α-MeK)^20 E-(α-MeF)^22-IA-(α-MeF)^25-(V)^26-V-(α-MeK)^28-G-(G)30”, the not cleaved result was “stability for over 60 hours, with no major cleavage products observed” in the data set with Chymotrypsin (rhCTRC) [4] and “significantly extended stability for over 18 hours” in the data set with Trypsin.

As for “H-(Aib)^2-EG-(S)^5-(α-MeF)^6-TSDV^10 SS-(α-MeF)^13-LE^15 GQAAK^20 E-(α-MeF)^22-IA-(α-MeF)^25 L-(Aib)^27-K-(Aib)^29-R^30”, in data set [5], the not cleaved result is given as “intact”.

Turning to “H-(Aib)^2-EG-(S)^5-(α-MeF)^6-TSDV^10 SS-(α-MeF)^13-LE^15 GQAAK^20 E-(α-MeF)^22-IA-(α-MeF)^25 LVKGR^30”, the not cleaved result in [6] is reported as “no proteolytic degradation over a 96 hour time-course; still stable after 10 days”. The cleaved bond entry with Chymotrypsin (rhCTRC) [4] is given as “Leu26-Val27, by 48 hours”; with Trypsin, “Lys20-E21, by 90 minutes; also recorded: Lys28-G29, by 90 minutes”.

On to “H-(Aib)^2-EGT^5 FTSDV^10 SSYLE^15 GQAAK^20 EFIAW^25 LVKGR^30”, for which the cleaved bond entry is recorded as “T5-Phe6; also recorded: S12-Tyr13; also recorded: E21-Phe22; also recorded: A24-Trp25” in data set [6] and “Lys20-E21, by 90 minutes; also recorded: Lys28-G29, by 90 minutes” with Trypsin.
